The source of these data is patent US20200317636A1, “DEUTERATED AZOLE COMPOUNDS AND PREPARATION METHOD THEREFOR AND USES THEREOF” (priority 2017, published 2020).

≈ marks a conversion by molar mass, not a printed value. Like-named read-outs stand apart in the source and are kept apart here.

The test system of series [1] is Candida albicans (standard strain SC5314). The series is described as follows: In vitro bacteriostatic experiment (minimum in vitro antifungal concentration, MIC80). It is filed as cell-based. The method, then: (I) Experimental method: The conventional in vitro bacteriostatic experiment method was adopted (for details, see: Antimicrob Agents Chemother 1995, 39 (5): 1169).
The fungal strain selected for this experiment was provided by the Fungal Department of Shanghai Changzheng Hospital (or purchased from the Institute of Materia Medica, Chinese Academy of Sciences).
Candida albicans (standard strain SC5314)
Preparation of bacterial suspension: The above fungi were cultured in YEPD liquid medium at 35° C. for 16 hours, activated twice, counted with a blood cell counting plate, and the bacteria concentration was adjusted to 1*10^4 to 1*10^5 cells/mL with RPM1640 liquid medium.
Preparation of drug solution: The test compound of the invention was dissolved in dimethyl sulfoxide to prepare a 0.8 mg/mL drug storage solution, and the 0.8 mg/mL drug storage solution was diluted to 8 μg/mL with RPM1640 before the experiment.
Inoculation: RPM1640 100 μL was added as a blank control in well 1 of the 96-well plate; 100 μL of the bacterial suspension was added in each of wells 3-12, 200 μL of the bacterial suspension and 2 μL of the drug solution were added in well 2 and the drug solution in wells 2-11 was diluted […], and the drug concentrations of these wells were 8, 4, 2, 1, 0.5, 0.25, 0.125, 0.0625, 0.0313, and 0.0156 μg/mL, respectively. No drug solution was added in well 12 to make positive control. The drug control was fluconazole.

The conditions of series [2]: human, microsomes.
A short description of the next series: in vitro. Particulars: human, microsomes.
Where [3] appears, read: Candida albicans, SC5314, read-out: Minimum in vitro antifungal concentration (MIC80).

`[2H]C(Oc1ccc(C#Cc2ccc(C(F)(F)[C@](O)(Cn3cnnn3)c3ccc(F)cc3F)nc2)cc1)c1ccc(C#N)cc1` (stereo partly drawn) [Compound D1]: in series [1] (setting [3]), the MIC80 came to 0.0156 µg/mL (≈ 0.0266 µM).
With `[2H]C([2H])(n1cnnn1)C(O)(c1ccc(F)cc1F)C(F)(F)c1ccc(C#Cc2ccc(OCc3ccc(C#N)cc3)cc2)cn1` (stereo not drawn) [Compound D3], the MIC80 in series [1] (setting [3]) was 0.0313 µg/mL (≈ 0.0534 µM).
What is called half-life is the time in which the quantity being followed falls by half. A higher half-life goes with slow decline. As for `Cc1ncc2n1-c1ccc(Cl)cc1C(c1ccccc1F)=NC2` [Midazolam], in series [2], the “CLint, microsome (in vitro intrinsic clearance)” value is reported as 274 μL × min^−1 × mg^−1 proteins and the “k (clearance constant)” value was determined as 0.0548 min⁻¹. This molecule displayed a half-life in “in vitro” of 0.212 h.
For the molecule `[2H]c1nnnn1CC(O)(c1ccc(F)cc1F)C(F)(F)c1ccc(C#Cc2ccc(OCc3ccc(C#N)cc3)cc2)cn1` (stereo not drawn) [Compound D5], the MIC80 in series [1] (setting [3]) came out at 0.0156 µg/mL (≈ 0.0266 µM).
Take `[2H]C([2H])(Oc1ccc(C#Cc2ccc(C(F)(F)[C@](O)(Cn3cnnn3)c3ccc(F)cc3F)nc2)cc1)c1ccc(C#N)cc1` [Compound D2]: the MIC80 in series [1] (setting [3]) was 0.0156 µg/mL (≈ 0.0266 µM).
On to `N#Cc1ccc(COc2ccc(C#Cc3ccc(C(F)(F)[C@](O)(Cn4cnnn4)c4ccc(F)cc4F)nc3)cc2)cc1` [VT-1598], for which, in series [2], the “CLint, microsome (in vitro intrinsic clearance)” value is given as 10.6 μL × min^−1 × mg^−1 proteins and the “k (clearance constant)” value amounted to 0.0053 min⁻¹. In addition, the half-life at 1 μM in the series “in vitro” was determined as 2.33 h. Moreover, in series [1] (setting [3]), the MIC80 is 0.0156 µg/mL (≈ 0.0267 µM).
Turning to `OC(Cn1cncn1)(Cn1cncn1)c1ccc(F)cc1F` [Fluconazole], the MIC80 in series [1] (Candida albicans SC5314, RPM1640 medium, 96-well dilution 8-0.0156 μg/mL, read-out: Minimum in vitro antifungal concentration (MIC80)) stood at 0.5 µg/mL (≈ 1.63 µM).
